The values that follow come from patent publication US6465479B1, “Pyridomorphinans and use thereof” (Southern Research Institute, priority 1999, dated 2002).

One data set addresses T1, μ receptors (Rattus norvegicus, UniProt P33535).
T1 construct: from tissue; host or cells: rat brain membranes
In words: μ opioid receptor binding, displacement of [3H]DAMGO in rat brain membranes. Particulars: displacement of [3H]DAMGO (1.4-3.0 nM), read-out: K1 (nM) ± SEM μ. (Displacement assays read how much labelled ligand stays bound in the presence of the test substance.)

Data set [1] deals with mouse vas deferens (MVD). In words: Opioid agonist activity in electrically stimulated mouse vas deferens (MVD). Type of data set: cell-based. As to conditions: percentage inhibition of contraction at 1 μM. On the procedure:
The opioid agonist and antagonist potencies were determined on the electrically stimulated mouse vas deferens (MVD) and guinea pig ileum (GPI) smooth muscle preparations.

In another data set the test system is guinea pig ileum (GPI). In words: Opioid agonist activity in electrically stimulated guinea pig ileum (GPI). Type of data set: cell-based.
Data set [2] relates to male ICR mice. In words: 55° C. warm-water tail-flick test, antinociception. Type of data set: in vivo, mouse. As to conditions: for agonist character in tail-flick, i.c.v.: icv injection. How it is done:
(§1) In the following examples, male ICR mice(20-30 grams) were used. […] The solution was brought up to approximately pH 5.5 with 1.74 M NaOH and then the final volume adjusted with distilled water. […] Additional compounds used in these studies were dissolved in distilled water (i.c.v. injections) or physiological saline (i.p. injections).
(§2) Antinociception was assessed using either the 55° C. warm-water tail-flick test or the acetic-acid writhing assay. […] Each mouse was first tested for baseline latency by immersing its tail in the water and recording the time to response. Mice not responding within 5 sec were excluded from further testing. Mice were then administered the test compound and tested for antinociception at 10, 20, 30, 45, 60 and 90 min post-injection. A maximum score was assigned (100%) to animals not responding within 15 sec to avoid tissue damage. Antinociception was calculated by the following formula: % antinociception=100×(test latency-control latency)/(15-control latency). For the acetic acid writhing test, mice were injected i.p. with 0.9% acetic acid. They were then placed in a clear Plexiglas observation jar and the number of abdominal writhes recorded for 15 min (Mogil et al., Heritability of nociception I: responses of 11 inbred mouse strains on 12 measures of nociception. Pain 80:67-82,1999). Percent antinociception was calculated using the formula: % MPE (maximum possible effect)=100−((#writhes individual mouse/mean # writhes control group)×100).

For data set [3], the system named is male ICR mice. In words: Acetic acid writhing assay, antinociception, tolerance and antagonist pretreatment. Type of data set: in vivo, mouse. Particulars: for Repeated Injections A50 (95% C.I.) i.c.v. / Repeated Injections A50 (95% C.I.) i.p. / Control A50 (95% C.I.) i.p. / Control A50 (95% C.I.) i.c.v.: acetic acid writhing; for Repeated Injections A50 (95% C.I.) i.c.v. / Repeated Injections A50 (95% C.I.) i.p.: after A90 dose ×2 daily, 3 days; for Control A50 (95% C.I.) i.p. / Control A50 (95% C.I.) i.c.v.: control mice. How it is done:
as §1, §2
Control mice received a vehicle injection (5 μl distilled water, i.c.v., −24 hr).
In general terms: An intraperitoneal irritant provokes the stretching counted in writhing tests.

Data set [4] has as its target T2, delta-2 ([D-Ala2, Glu4]deltorphin) (Mus musculus, UniProt P32300).
T2 construct: male ICR mice(20-30 grams) were used; from tissue; host or cells: whole animal (male ICR mice), tail-flick test
In words: Antagonism of delta-2 agonist [D-Ala2, Glu4]deltorphin antinociception in the 55° C. tail-flick test. The data set is classed as in vivo. How it is done: as §2
(§3) Mice were then injected with A90 doses of selective mu, delta or kappa agonists and antinociception was assessed in the 55° C. tail-flick test.
Background: In hot-plate and tail-flick tests a longer latency is read as antinociception.

Another data set concerns the target T3, delta-1 (DPDPE) (Mus musculus, UniProt P32300).
T3 construct: male ICR mice(20-30 grams) were used; from tissue; host or cells: whole animal (male ICR mice), tail-flick test
In words: Antagonism of delta-1 agonist DPDPE antinociception in the 55° C. tail-flick test. The data set is classed as in vivo. On the procedure:
as §2, §3

The target of the next data set is T4, mu (DAMGO) (Mus musculus, UniProt P42866).
T4 construct: male ICR mice(20-30 grams) were used; from tissue; host or cells: whole animal (male ICR mice), tail-flick test
In words: Antagonism of mu agonist DAMGO antinociception in the 55° C. tail-flick test. Type of data set: in vivo. How it is done: as §2, §3

The next data set deals with T5, kappa (U69,593) (Mus musculus, UniProt P33534).
T5 construct: male ICR mice(20-30 grams) were used; from tissue; host or cells: whole animal (male ICR mice), tail-flick test
In words: Antagonism of kappa agonist U69,593 antinociception in the 55° C. tail-flick test. The data set is classed as in vivo. On the procedure:
as §2, §3

The next data set has as its target δ receptors (Rattus norvegicus, UniProt P33533). As to conditions: read-out: K1 (nM) ± SEM δ; displacement of [3H]DADLE (1.3-2.0 nM), rat brain membranes, 100 nM DAMGO to block μ sites.
A further data set addresses κ receptors (Cavia porcellus, UniProt P41144). As to conditions: read-out: K1 (nM) ± SEM K1 (κ); displacement of [3H]U69,593 (1.2-[…]), guinea pig brain membranes.
Another data set deals with mice. In words: Overt signs of toxicity in mice during the antinociceptive studies. As to conditions: dose ranges tested.
The subject of a further data set is morphine pretreated mice. In words: Acute morphine physical dependence, precipitated withdrawal (vertical jumps).
Data set [5] deals with T6, δ opioid receptor (DPDPE) in the MVD preparation (Mus musculus, UniProt P32300).
T6 construct: electrically stimulated mouse vas deferens (MVD) and guinea pig ileum (GPI) smooth muscle preparations; from tissue; host or cells: mouse vas deferens
As to conditions: data from published sources; cited from earlier work.

The test system of data set [6] is mouse vas deferens (MVD). Particulars: percentage inhibition of contraction at 1 μM; data from published sources; cited from earlier work.
Data set [7] deals with μ opioid receptor (PL-017) in the GPI preparation. Particulars: data from published sources; cited from earlier work.

Several values for one entry are separate records, joined by “and”; a condition that tells them apart may be missing. Equal entries are not always repeated. Entries after “also recorded” stand apart in the source; their conditions may differ. Where two headings read alike, the source gives them in different places.

What is called IC50 is the concentration at which inhibition is half-maximal. Read a high IC50 as weaker potency in that assay.

T4 sequence (P42866 whole entry): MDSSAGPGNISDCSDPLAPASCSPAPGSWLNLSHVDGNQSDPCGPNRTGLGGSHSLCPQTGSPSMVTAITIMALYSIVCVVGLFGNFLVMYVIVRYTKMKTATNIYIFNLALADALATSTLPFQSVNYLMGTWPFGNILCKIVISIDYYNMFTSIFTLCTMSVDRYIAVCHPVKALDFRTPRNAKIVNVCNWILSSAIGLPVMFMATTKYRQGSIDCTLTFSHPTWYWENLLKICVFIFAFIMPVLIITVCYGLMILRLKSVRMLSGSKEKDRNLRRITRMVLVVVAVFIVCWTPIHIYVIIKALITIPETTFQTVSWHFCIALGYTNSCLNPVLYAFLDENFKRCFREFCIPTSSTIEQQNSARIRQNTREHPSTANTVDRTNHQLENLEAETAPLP
T5 sequence (P33534 whole entry): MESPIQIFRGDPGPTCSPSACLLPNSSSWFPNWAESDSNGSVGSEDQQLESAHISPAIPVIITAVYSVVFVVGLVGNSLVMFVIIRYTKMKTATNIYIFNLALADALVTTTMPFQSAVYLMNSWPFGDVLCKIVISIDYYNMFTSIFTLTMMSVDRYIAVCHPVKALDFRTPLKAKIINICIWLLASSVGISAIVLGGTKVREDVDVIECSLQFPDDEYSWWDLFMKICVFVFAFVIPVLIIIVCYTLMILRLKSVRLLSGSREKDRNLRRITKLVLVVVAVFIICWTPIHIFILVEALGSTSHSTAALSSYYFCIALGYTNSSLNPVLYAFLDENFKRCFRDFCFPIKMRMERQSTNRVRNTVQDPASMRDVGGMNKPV
T3 sequence (P32300 whole entry): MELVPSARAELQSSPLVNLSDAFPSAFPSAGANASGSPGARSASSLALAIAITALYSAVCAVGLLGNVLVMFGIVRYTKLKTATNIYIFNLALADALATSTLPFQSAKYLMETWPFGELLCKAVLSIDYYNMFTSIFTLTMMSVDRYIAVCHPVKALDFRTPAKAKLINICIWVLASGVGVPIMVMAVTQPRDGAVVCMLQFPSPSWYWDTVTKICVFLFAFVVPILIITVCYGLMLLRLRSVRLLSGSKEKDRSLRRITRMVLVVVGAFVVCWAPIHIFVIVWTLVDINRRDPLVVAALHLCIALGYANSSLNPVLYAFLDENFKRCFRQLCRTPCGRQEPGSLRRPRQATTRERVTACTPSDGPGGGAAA
T2 sequence (P32300 whole entry): as above
κ receptors, sequence (P41144 whole entry): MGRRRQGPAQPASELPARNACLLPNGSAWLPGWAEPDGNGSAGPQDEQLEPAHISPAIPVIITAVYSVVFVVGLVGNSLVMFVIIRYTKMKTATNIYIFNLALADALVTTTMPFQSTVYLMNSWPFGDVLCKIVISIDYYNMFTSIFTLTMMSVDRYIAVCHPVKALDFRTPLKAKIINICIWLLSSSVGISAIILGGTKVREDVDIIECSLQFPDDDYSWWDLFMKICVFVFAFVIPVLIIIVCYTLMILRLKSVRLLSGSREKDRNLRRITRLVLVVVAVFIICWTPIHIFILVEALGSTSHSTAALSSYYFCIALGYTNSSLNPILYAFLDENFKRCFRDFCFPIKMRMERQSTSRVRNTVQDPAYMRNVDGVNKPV
δ receptors, sequence (P33533 whole entry): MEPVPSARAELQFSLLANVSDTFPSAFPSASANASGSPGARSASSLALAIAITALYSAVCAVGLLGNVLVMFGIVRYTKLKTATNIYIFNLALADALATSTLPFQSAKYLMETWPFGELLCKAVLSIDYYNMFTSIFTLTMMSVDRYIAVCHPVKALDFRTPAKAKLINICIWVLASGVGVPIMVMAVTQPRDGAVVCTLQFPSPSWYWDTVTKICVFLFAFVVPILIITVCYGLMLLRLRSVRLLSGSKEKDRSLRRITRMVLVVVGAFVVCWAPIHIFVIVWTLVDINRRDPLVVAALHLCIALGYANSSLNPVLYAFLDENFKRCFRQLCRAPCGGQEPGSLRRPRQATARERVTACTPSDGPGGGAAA
T6 sequence (P32300 whole entry): as the sequence (P32300 whole entry) above
T1 sequence (P33535 whole entry): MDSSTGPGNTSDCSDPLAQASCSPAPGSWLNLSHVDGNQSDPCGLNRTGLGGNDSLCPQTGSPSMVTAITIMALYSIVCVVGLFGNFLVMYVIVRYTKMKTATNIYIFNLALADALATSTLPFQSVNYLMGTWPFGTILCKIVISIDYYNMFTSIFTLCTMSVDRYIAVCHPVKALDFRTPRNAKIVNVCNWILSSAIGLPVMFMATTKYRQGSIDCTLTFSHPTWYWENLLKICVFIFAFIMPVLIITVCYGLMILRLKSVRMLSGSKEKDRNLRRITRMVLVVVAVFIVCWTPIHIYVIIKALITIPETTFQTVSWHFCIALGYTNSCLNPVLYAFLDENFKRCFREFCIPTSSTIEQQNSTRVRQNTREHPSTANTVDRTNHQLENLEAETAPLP

Consider `Oc1ccc2c3c1O[C@H]1c4ncc(-c5ccc(Cl)cc5)cc4C[C@@]4(O)[C@@H](C2)N(CC2CC2)CC[C@]314` [Compound 6d, 5′-(4-Chlorophenyl)-17-(Cyclopropylmethyl)-6,7-didehydro-3,14-dihydroxy-4,5α-epoxypyrido[2′3′:6,7]morphinan], for which the values for the Ki at μ receptors, at δ receptors and on κ receptors were 51 ± 8 nM, 2.2 ± 0.16 nM and 20 ± 1.04 nM, respectively. For the same compound, in the data set with mouse vas deferens (MVD) [1], the “agonist activity MVD % max resp” value stood at 21%. In addition, the “agonist character in the GPI” value in the data set with guinea pig ileum (GPI) is “full agonist”. Further, in the data set on guinea pig ileum (GPI) (Cavia porcellus, agonist), the IC50 was 163 nM. For the same compound, the “% MPE tail flick” value in the data set on male ICR mice [2] (100 nmol i.c.v., mice) turned out to be 40.3 % MPE. For the same compound, the A50 tail-flick i.c.v. result in the data set with male ICR mice [2] (55° C. tail-flick, mice) was “greater than 100 nmol”. In the data set on male ICR mice [2] (55° C. tail-flick), the “agonist character in tail-flick, i.c.v.” value is “only partial agonist effects”. In addition, in the data set with male ICR mice [2] (i.p., doses up to 60 mg/kg), the “antinociceptive effect in tail flick, i.p.” value is given as “no measurable antinociceptive effect”. The number of writhes result in the data set with male ICR mice [3] (30 nmol i.c.v. (A90), vs vehicle, p<0.001) is reported as “significantly decreased the number of writhes”. In the data set on male ICR mice [3], the “Repeated Injections A50 (95% C.I.) i.c.v.” value is 10.9 nmol (7.2-16.5. Further, the “Repeated Injections A50 (95% C.I.) i.p.” value in the data set on male ICR mice [3] is 3.85 mg/kg (0.9-16.0. Further, the “Control A50 (95% C.I.) i.p.” value in the data set with male ICR mice [3] is listed as 4.6 mg/kg (2.5-8.6. Also, the “agonist character in acetic acid writhing, i.c.v.” value in the data set on male ICR mice [3] (icv injection) is reported as “full agonist activity”. In the data set with male ICR mice [3] (naltrindole 20 mg/kg i.p. -20 min (p>0.99) or nor-BNI 1 nmol i.c.v. -24 hr (p>0.13), 6d 30 nmol i.c.v.), the “blockade of antinociception by delta or kappa antagonist pretreatment” value was “not by naltrindole (p>0.99) or nor-BNI”. The “blockade of antinociception by mu antagonist pretreatment” value in the data set on male ICR mice [3] (β-FNA 19 nmol i.c.v. -24 hr, 6d 30 nmol i.c.v., p<0.002) is listed as “blocked by pre-treatment with β-FNA”. For the same compound, the “antagonism of delta-2 agonist, in words” value in data set [4] (i.p.) was “potently antagonized”. For the same compound, the “ID50 (mg/kg) against [D-Ala2, Glu4]deltorphin” value in [4] (i.p. pretreatment -20 min, A90 i.c.v. agonist 20 nmol) was determined as 3.4 mg/kg. Also, the “ID50 (mg/kg) against DPDPE” value on delta-1 (DPDPE) (i.p. pretreatment -20 min, A90 i.c.v. agonist 30 nmol) is recorded as 15.3 mg/kg. Further, the “antagonism of delta-1 agonist DPDPE, in words” value on delta-1 (DPDPE) (i.p., compared with delta-2) is on record as “much less potent”. The “ID50 (mg/kg) against DAMGO” value at mu (DAMGO) (i.p. pretreatment -20 min, A90 i.c.v. agonist 0.1 nmol) came to 28.9 mg/kg. In addition, on mu (DAMGO) (i.p., compared with delta-2), the “antagonism of mu agonist DAMGO, in words” value is listed as “much less potent”. Besides, the “ID50 (mg/kg) against U69,593” value at kappa (U69,593) (i.p. pretreatment -20 min, A90 i.c.v. agonist 60 nmol, tail-flick) is given as above 60 mg/kg. Besides, the “effect on antinociception of kappa agonist U69,593, in words” value at kappa (U69,593) (i.p., doses of up to 60 mg/kg) is “did not affect”. Moreover, the “overt signs of toxicity” value with mice is listed as “did not display any overt signs of toxicity”. Besides, in the data set on morphine pretreated mice (10 mg/kg i.p., 4 hr after morphine 100 mg/kg, vs naloxone 10 mg/kg i.p., p<0.001), the “vertical jumps precipitated in morphine pretreated mice” value is reported as “significantly less vertical jumps than naloxone injection”. The “attenuation of naloxone precipitated withdrawal (jumps)” value in the data set with morphine pretreated mice (coadministration 6d 10 mg/kg i.p. + naloxone 10 mg/kg i.p., p<0.05) is “significantly less jumps than naloxone alone; also recorded: attenuated opioid withdrawal”.

Turning to `CN1CC[C@]23c4c5ccc(O)c4O[C@H]2[C@@H](O)C=C[C@H]3[C@H]1C5` [morphine, reference compound], the A50 tail-flick i.c.v. in the data set with male ICR mice [2] (55° C. tail-flick, mice) is 2.94 nmol and 1.7 nmol. This compound gave an A50 tail-flick i.p. in the data set on male ICR mice [2] (55° C. tail-flick, i.p., mice) of 8.0 mg/kg. The “agonist character in tail-flick, i.c.v.” value with male ICR mice [2] (55° C. tail-flick) is reported as “full agonist effect”. In the data set with male ICR mice [3], the “Repeated Injections A50 (95% C.I.) i.c.v.” value is 0.05 nmol (0.03-0.08, the “Control A50 (95% C.I.) i.c.v.” value was 0.004 nmol, the “Repeated Injections A50 (95% C.I.) i.p.” value is given as 4.78 mg/kg (3.7-6.2 and the “Control A50 (95% C.I.) i.p.” value was 2.2 mg/kg (1.8-2.7. Further, the “Control A50 (95% C.I.) i.c.v.” value with male ICR mice [3] (listed as Morphine) was 0.004 nmol (0.003-0.006.

For the compound `Oc1ccc2c3c1O[C@H]1c4[nH]c5ccccc5c4C[C@@]4(O)[C@@H](C2)N(CC2CC2)CC[C@]314` [naltrindole], the Ki at δ receptors is 0.41 ± 0.09 nM; at κ receptors, 35.8 ± 4 nM. The “antagonist activity DPDPE (δ) Ke” value in [5] is reported as 0.49 nM. For the same compound, the “agonist activity MVD % max resp” value with mouse vas deferens (MVD) [6] is given as 16%. In data set [7], the “antagonist activity PL-017 (μ) Ke” value is recorded as 43 nM.
